Measured values from US8492341B2, “Amyloid-β binding peptides” (Alzyme Pty Ltd., priority 2006, dated 2013).

What was measured:
[1] = system: M17 Neuroblastoma cells; assay: MTS cell viability assay, cell death induced by human Aβ1-42 (40 μM); format: cell-based
Description: M17 Neuroblastoma cells were seeded in a 48 well plate at a density of 50,000 cells per well. The plate was incubated for 24 hours at 37° C. in media (OPTI-MEM) containing 10% FCS. The next day the cells were treated with human Aβ1-42 (40 μM) in the presence or absence of the peptides 15merTNP or peptide analogue MP2 (FIG. 2). The peptides were provided at concentrations ranging from 20-400 μM prepared in Neuro basal media containing B27 supplement without antioxidants. Following incubation (4 days at 37° C.), cell viability was assessed using the CellTiter 96® AQueous One Solution cell proliferation assay (MTS; Promega, Wis., USA) as per manufactures instructions. Briefly, 200 μl of MTS reagent (1/10 dilution) was added directly to the culture wells and the plate incubated for 3 hours at 37° C. Following incubation, 150 μl of the solution was transferred to a 96 well plate and the absorbance is determined spectrophotometrically at 490 nm.
Similar to the MTT assay, the MTS assay is a colorimetric method for determining the number of viable cells in proliferation or cytotoxicity assays. The principle of the MTS assay is the same as the MTT assay, except for the tetrazolium compound that is bio-reduced by the mitochondria of the cells, forming a coloured formazan product that is soluble (rather than insoluble for the MTT assay) in tissue culture medium. This conversion is accomplished by NADPH or NADH produced by dehydrogenase enzymes in metabolically active cells: Berridge M V. And Tan A. S. (1993) Characterisation of the cellular reduction of 3-(4,5-dimethylthiazol-2-yl)-2,5-diphenyltetrazolium bromide (MTT): Subcellular localisation, substrate dependence and involvement of mitochondrial electron transport in MTT reduction. Arch. Biochem. Biophys. 303, 474-82.
The effect of human Aβ1-42 (40 μM) on cell viability was determined in triplicate in each of the 10 MTS assays (i.e. n=30) performed in this study. All data are presented as means±SEM.
The effect of peptide analogue MP2 to protect against human Aβ42-induced toxicity was then determined using the MTS assay in triplicate in two separate experiments for all doses (i.e. n=6), unless otherwise specified. The effectiveness of MP2 was compared against the 15merTNP.

[2] = set-up: species or system mice (129×1 strain); settings: mouse, in vivo
Description: Another essential requirement of drug development is the ability of the peptide to cross the BBB and impact on targeted tissue. To measure the ability of 15merTNP and peptide analogue MP2 to cross the BBB, intracerebroventricular (i.c.v) delivery was assessed. The use of i.c.v injections on animal models allows for high doses to be delivered straight to the ventricular spaces where it can cross the parenchyma layer to the brain matter.
For i.c.v injections, control mice (129×1 strain) were anesthetized with intraperitoneal ketamine/xylazine at a dose of 10 ml/kg and then administered with 200 μg of either peptide (90 nmol). Both radioactive (^3H-labelled; hot) and non-radioactive (cold) was used to allow physiological doses of peptide to be delivered.
To determine whether the peptides had effectively penetrated into the brain parenchyma, a capillary depletion experiment was performed. After 25 min post injection the animal was sacrificed and the brain removed. This was homogenized and centrifuged for 10 min at 13000 rpm at 4° C. resulting in a supernatant containing predominately radioactivity from the cortex and a pellet with radioactivity from the capillaries and endothelium. A comparison of radioactivity in each sample was conducted to assess percentage of peptide movement into the cortex. The amount of radioactivity in the capillary pellet of mice that were perfused and not perfused with saline solution was compared to determine the percentage of peptide bound to the luminal surface of the capillaries and sequestered by brain endothelial cells.
A detailed necropsy was performed on each animal following perfusion to thoroughly assess peptide movement throughout peripheral organs, central nervous tissue and blood. […] Thus the concentration of labelled tritium could be measured per mass of sample and using this and the known ratio of non-labelled peptide present, the concentration of total peptide could be determined.
The pharmacokinetic profile of peptide analogue MP2 over four time points, post i.c.v injection into the CNS was determined. […]

Ac-NRTPQMLKR-NH2 [MP2, Ac-Asn-Arg-Thr-Pro-Gln-Met-Leu-Lys-Arg-NH2]
maximum reduction in cell toxicity associated with human Aβ1-42 ([1]; Aβ1-42 40 μM): around 15% | effect on cell death associated with human Aβ1-42 ([1]; peptide concentration ≧200 μM, P<0.05): significantly reduced cell death | effect on cell death associated with human Aβ1-42 ([1]; peptide concentrations ≦80 μM): no effect | crossing of the blood brain barrier [2]: poorly | peptide removed from the CNS [2]: 99%
